Data reported in the supplement of paper PMC8671470.

Legend:
Conditions in all cases: 72 h
HL-60 [1] = test: cell viability (% survival relative to DMSO control); higher = less cytotoxic
Procedure, shortened: (§1)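 A rescreen of the full library used HL-60 cells in RPMI 1640 with 10% FBS on 384-well plates, run in duplicate at five tenfold concentrations (1–10,000 nM). Each screen included DMSO or 100 nM of one of three metabolic inhibitors and ran 72 h at 37 °C, 5% CO2. CellTiter-Glo viability was scaled between DMSO and 10 μM proteasome-inhibitor wells. Any area under the curve comes from four-parameter log-logistic fits with drc and PharmacoGx.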

HL-60 [2] = test: area under dose-response curve (viability, 1 nM-10 uM) (fraction (0-1)); higher = more sensitive
Procedure, shortened: as §1

ML-2 [3] = test: cell viability (% survival relative to DMSO control, bortezomib = 0%); higher = less cytotoxic
Procedure, shortened: (§2)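 Fifteen myeloid leukaemia cell lines (10 AML, 5 CML) were seeded at a density titrated to the linear growth range into 384-well plates pre-printed with compounds at 1, 10, 100, 1000 or 10000 nM in duplicate. Plates were incubated for 72 h at 37 °C with 5% CO2. Viability was then read by CellTiter-Glo luminescence. Each value is percent survival averaged over the duplicates, with vehicle set to 100% and a 10 µM positive control to 0%.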

MV4-11 [4] = test: as above
Procedure, shortened: as §2

MOLM-13 [5] = test: as above
Procedure, shortened: as §2

LAMA-84 [6] = test: as above
Procedure, shortened: as §2

BV-173 [7] = test: as above
Procedure, shortened: as §2

SHI-1 [8] = test: as above
Procedure, shortened: as §2

KG-1 [9] = test: as above
Procedure, shortened: as §2

HEL [10] = test: as above
Procedure, shortened: as §2

K-562 [11] = test: as above
Procedure, shortened: as §2

KCL-22 [12] = test: as above
Procedure, shortened: as §2

HL-60 [13] = test: as above
Procedure, shortened: as §2

THP-1 = test system: THP-1
Procedure, shortened: (§3)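 Seeded in RPMI 1640 at densities within the linear growth range, fifteen myeloid leukaemia cell lines were dispensed into 384-well plates with acoustically pre-printed compounds spanning five tenfold doses from 1 to 10,000 nM, in duplicate. The plates were kept for 72 h at 37 °C in 5% CO2 before luminescent ATP viability was measured and normalised to vehicle and to a positive control at 10 µM. Curves were fitted with a four-parameter log-logistic model. The IC50 was taken from those curves.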

ML-2 [14] = test system: ML-2
Procedure, shortened: as §3

MV4-11 [15] = test system: MV4-11
Procedure, shortened: as §3

MOLM-13 [16] = test system: MOLM-13
Procedure, shortened: as §3

LAMA-84 [17] = test system: LAMA-84
Procedure, shortened: as §3

BV-173 [18] = test system: BV-173
Procedure, shortened: as §3

SHI-1 [19] = test system: SHI-1
Procedure, shortened: as §3

KG-1 [20] = test system: KG-1
Procedure, shortened: as §3

HEL [21] = test system: HEL
Procedure, shortened: as §3

K-562 [22] = test system: K-562
Procedure, shortened: as §3

KU-812 = test system: KU-812
Procedure, shortened: as §3

KCL-22 [23] = test system: KCL-22
Procedure, shortened: as §3

NOMO-1 = test system: NOMO-1
Procedure, shortened: as §3

HL-60 [24] = test system: HL-60
Procedure, shortened: as §3

Mono-Mac-6 = test system: Mono-Mac-6
Procedure, shortened: as §3

Cc1nc(-c2ccc(OCC(C)C)c(C#N)c2)sc1C(=O)O [Febuxostat]
cell viability [%], HL-60 [1]
Conditions	0.001 µM	0.01 µM	0.1 µM	1 µM	10 µM
co-treatment: AZD3965 100 nM	96.8	104	104	98.3	98.16
co-treatment: DMSO vehicle	96.5	99.3	103	95.6	104.8
co-treatment: GSK2194069 100 nM	99.9	93.2	94.47	95.2	98.7
co-treatment: pictilisib 100 nM	98.2	100	107	95.4	96

Conditions	area under dose-response curve, co-treatment: AZD3965 100 nM	area under dose-response curve, co-treatment: DMSO vehicle	area under dose-response curve, co-treatment: GSK2194069 100 nM	area under dose-response curve, co-treatment: pictilisib 100 nM	cell viability, 1 nM [%]	cell viability, 10 nM [%]	cell viability, 100 nM [%]	cell viability, 1000 nM [%]	cell viability, 10000 nM [%]
BV-173 [7]	–	–	–	–	103	101	79.9	99.7	82.6
HEL [10]	–	–	–	–	97	97.8	106	105	84.5
HL-60 [2]	0.0351	< 0.0301	< 0.0301	0.0462	–	–	–	–	–
HL-60 [13]	–	–	–	–	103	85.2	114	91.3	99.3
K-562 [11]	–	–	–	–	100	91.3	84.2	113	87.7
KCL-22 [12]	–	–	–	–	92.5	103	98	104	80.1
KG-1 [9]	–	–	–	–	102	97.5	103	94.6	90.4
LAMA-84 [6]	–	–	–	–	102	95.7	92.4	105	101
ML-2 [3]	–	–	–	–	94	96	100	90.2	86.8
MOLM-13 [5]	–	–	–	–	90.6	102	141	103	94.9
MV4-11 [4]	–	–	–	–	88.2	104	99.1	105	116
SHI-1 [8]	–	–	–	–	87	97.7	99	99.4	93.8

Conditions	IC50 (cell viability) [µM]
BV-173 [18]	> 10
HEL [21]	> 10
HL-60 [24]	> 10
K-562 [22]	> 10
KCL-22 [23]	> 10
KG-1 [20]	> 10
KU-812	> 10
LAMA-84 [17]	> 10
ML-2 [14]	> 10
MOLM-13 [16]	> 10
MV4-11 [15]	> 10
Mono-Mac-6	> 10
NOMO-1	> 10
SHI-1 [19]	> 10
THP-1	> 10

OC[C@H]1N[C@@H](c2c[nH]c3c(O)ncnc23)[C@H](O)[C@@H]1O [Forodesine]
cell viability [%], HL-60 [1]
Conditions	0.001 µM	0.01 µM	0.1 µM	1 µM	10 µM
co-treatment: AZD3965 100 nM	97.5	105	101	101	94
co-treatment: DMSO vehicle	101	105	105	99.2	100.1
co-treatment: GSK2194069 100 nM	100	103	96.2	98.2	95.9
co-treatment: pictilisib 100 nM	79.7	93.3	99.5	95.3	103.8

Conditions	area under dose-response curve, co-treatment: AZD3965 100 nM	area under dose-response curve, co-treatment: DMSO vehicle	area under dose-response curve, co-treatment: GSK2194069 100 nM	area under dose-response curve, co-treatment: pictilisib 100 nM	cell viability, 1 nM [%]	cell viability, 10 nM [%]	cell viability, 100 nM [%]	cell viability, 1000 nM [%]	cell viability, 10000 nM [%]
BV-173 [7]	–	–	–	–	95.1	83.9	103	91.1	89.1
HEL [10]	–	–	–	–	103	95.9	102	92.6	88.6
HL-60 [2]	< 0.0301	< 0.0301	< 0.0301	< 0.0301	–	–	–	–	–
HL-60 [13]	–	–	–	–	92.1	98	95.8	102	90.2
K-562 [11]	–	–	–	–	94.9	94.4	88.3	97.5	99.3
KCL-22 [12]	–	–	–	–	102	91.8	100	99.2	91.3
KG-1 [9]	–	–	–	–	107	94.2	95.4	85.1	82.8
LAMA-84 [6]	–	–	–	–	96.4	90.1	94.7	93	88.7
ML-2 [3]	–	–	–	–	92.7	85	95.3	92.9	85.7
MOLM-13 [5]	–	–	–	–	81.3	89.2	93.1	103	84.1
MV4-11 [4]	–	–	–	–	97.1	94.5	91.7	92.3	90.3
SHI-1 [8]	–	–	–	–	101	95.5	94.3	108	98.9

Conditions	IC50 (cell viability) [µM]
BV-173 [18]	> 10
HEL [21]	> 10
HL-60 [24]	> 10
K-562 [22]	> 10
KCL-22 [23]	> 10
KG-1 [20]	> 10
KU-812	> 10
LAMA-84 [17]	> 10
ML-2 [14]	> 10
MOLM-13 [16]	> 10
MV4-11 [15]	> 10
Mono-Mac-6	> 10
NOMO-1	> 10
SHI-1 [19]	> 10
THP-1	> 10
